# Test results reported in ChEMBL document CHEMBL5252650, “An ATG4B inhibitor blocks autophagy and sensitizes Sorafenib inhibition activities in HCC tumor cells” (Bioorg Med Chem, 2023).
# Calls of active or inactive are those of the source. The rule behind the calls is not given here.
# Legend:
# Huh-7 [1] = test: Inhibition of autophagy in human Huh-7 cells assessed as reduction in LC3B-I protein expression at 10 to 20 uM incubated for 24 hrs by immunoblot analysis; type: functional, cell-based; conditions: dose 10-20 µM
# Huh-7 [2] = test: Inhibition of sorafenib-induced autophagic flux in human Huh-7 cells overexpressing TurboRFP-EGFP-LC3B assessed as increase in yellow dot puncta formation at 10 uM incubated for 24 hrs in presence of 5 uM sorafenib by immunofluorescence assay; type: functional, cell-based
# MRC5 = test: Cytotoxicity against human MRC5 cells; type: toxicity, cell-based
# [3] = biological target: T1, Cysteine protease ATG4B (Homo sapiens) (UniProt Q9Y4P1); test: Inhibition of N-terminal His6/SUMO-tagged full length human ATG4B expressed in Escherichia coli BL21 (DE3) cells assessed as reduction in substrate cleavage using His-LC3B-GST as substrate preincubated with enzyme for 1 hr followed by substrate addition for 30 mins by gel electrophoresis analysis; conditions: dose 3.125-50 µM, time 1.5 hrs
# T1 sequence (whole entry): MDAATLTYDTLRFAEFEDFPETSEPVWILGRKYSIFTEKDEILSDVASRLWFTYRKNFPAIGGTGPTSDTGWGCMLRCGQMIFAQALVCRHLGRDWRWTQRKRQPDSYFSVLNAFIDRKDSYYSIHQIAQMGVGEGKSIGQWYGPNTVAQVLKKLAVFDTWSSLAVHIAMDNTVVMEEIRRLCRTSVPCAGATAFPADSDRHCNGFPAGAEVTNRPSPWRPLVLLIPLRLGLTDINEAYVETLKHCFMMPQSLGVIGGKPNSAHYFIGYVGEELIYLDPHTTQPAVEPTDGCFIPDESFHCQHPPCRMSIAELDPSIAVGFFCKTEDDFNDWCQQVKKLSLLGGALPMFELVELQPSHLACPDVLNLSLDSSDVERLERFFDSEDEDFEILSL
# [4] = Inhibition of sorafenib-induced autophagic flux in human Huh-7 cells assessed as fold increase in p62 protein expression at 20 uM incubated for 24 hrs in presence of 10 uM sorafenib by immunoblot analysis relative to control; type: functional
# IMR-90 = test: Cytotoxicity against human IMR-90 cells; type: toxicity, cell-based
# Huh-7 [5] = test: Potentiation of sorafenib-induced antiproliferative activity against human Huh-7 cells assessed as inhibition of cell proliferation at 20 uM incubated for 5 days in presence of sorafenib by CTG assay; type: functional, cell-based; conditions: time 5.0 day
# Huh-7 [6] = test: Inhibition of autophagy in human Huh-7 cells assessed as fold increase in LC3B-II protein expression at 10 uM incubated for 24 hrs by immunoblot analysis relative to control; type: functional
# Cysteine protease ATG4B [7] = biological target: T2, Cysteine protease ATG4B (Homo sapiens, UniProt Q9Y4P1); test: (§1) Inhibition of N-terminal His6/SUMO-tagged full length human ATG4B expressed in Escherichia coli BL21 (DE3) cells using His-LC3B-GST as substrate preincubated with enzyme for 1 hr followed by substrate addition for 1 hr by HTRF assay
# T2 sequence (Q9Y4P1 whole entry): T1 sequence (whole entry)
# [8] = biological target: T1, Cysteine protease ATG4B (Homo sapiens); test: as §1; conditions: time 2.0 hrs
# Huh-7 [9] = test: Inhibition of autophagy in human Huh-7 cells overexpressing TurboRFP-EGFP-LC3B assessed as increase in number of red dots at 10 uM incubated for 24 hrs by immunofluorescence assay; type: functional, cell-based
# Huh-7 [10] = test: Inhibition of colony formation in human Huh-7 cells at 10 uM incubated for 14 days in presence of sorafenib by crystal violet staining based analysis; type: functional, cell-based; conditions: time 14.0 day
# [11] = Inhibition of sorafenib-induced autophagic flux in human SK-HEP1 cells assessed as fold increase in LC3B-II protein expression at 20 uM incubated for 24 hrs in presence of 5 uM sorafenib by immunoblot analysis relative to control; type: functional
# [12] = Inhibition of sorafenib-induced autophagic flux in human Huh-7 cells assessed as fold increase in p62 protein expression at 20 uM incubated for 24 hrs in presence of 5 uM sorafenib by immunoblot analysis relative to control; type: functional
# Cysteine protease ATG4B [13] = biological target: T2, Cysteine protease ATG4B; test: Binding affinity to N-terminal His6/SUMO-tagged full length human ATG4B expressed in Escherichia coli BL21 (DE3) cells by SPR assay
# SK-HEP1 [14] = test: Cytotoxicity against human SK-HEP1 cells assessed as reduction in cell viability incubated for 72 hrs by CellTiter-Glo luminescent assay; type: functional, cell-based; conditions: SK-HEP1, 72 h
# [15] = biological target: T1, Cysteine protease ATG4B (Homo sapiens); test: Binding affinity to N-terminal His6/SUMO-tagged full length human ATG4B expressed in Escherichia coli BL21 (DE3) cells at 100 uM by CPMG spectroscopy
# [16] = Inhibition of sorafenib-induced autophagic flux in human SK-HEP1 cells assessed as fold increase in p62 protein expression at 20 uM incubated for 24 hrs in presence of 10 uM sorafenib by immunoblot analysis relative to control; type: functional
# SK-HEP1 [17] = test: Inhibition of autophagy in human SK-HEP1 cells assessed as fold increase in LC3B-II protein expression at 10 uM incubated for 24 hrs by immunoblot analysis relative to control; type: functional
# Huh-7 [18] = test: Cytotoxicity against human Huh-7 cells assessed as reduction in cell viability incubated for 72 hrs by CellTiter-Glo luminescent assay; type: functional, cell-based; conditions: Huh-7, 72 h
# [19] = Inhibition of sorafenib-induced autophagic flux in human SK-HEP1 cells assessed as fold increase in LC3B-II protein expression at 20 uM incubated for 24 hrs in presence of 10 uM sorafenib by immunoblot analysis relative to control; type: functional
# [20] = Inhibition of sorafenib-induced autophagic flux in human SK-HEP1 cells assessed as fold increase in p62 protein expression at 20 uM incubated for 24 hrs in presence of 5 uM sorafenib by immunoblot analysis relative to control; type: functional
# Huh-7 [21] = test: Inhibition of autophagy in human Huh-7 cells assessed as fold increase in p62 protein expression at 10 uM incubated for 24 hrs by immunoblot analysis relative to control; type: functional
# SK-HEP1 [22] = test: Potentiation of sorafenib-induced antiproliferative activity against human SK-HEP1 cells assessed as inhibition of cell proliferation at 20 uM incubated for 5 days in presence of sorafenib by CTG assay; type: functional, cell-based; conditions: time 5.0 day
# [23] = Inhibition of sorafenib-induced autophagic flux in human Huh-7 cells assessed as fold increase in LC3B-II protein expression at 20 uM incubated for 24 hrs in presence of 10 uM sorafenib by immunoblot analysis relative to control; type: functional
# SK-HEP1 [24] = test: Inhibition of autophagy in human SK-HEP1 cells assessed as fold increase in LC3B-II protein expression at 20 uM incubated for 24 hrs by immunoblot analysis relative to control; type: functional
# Huh-7 [25] = test: Inhibition of autophagy in human Huh-7 cells assessed as fold increase in p62 protein expression at 20 uM incubated for 24 hrs by immunoblot analysis relative to control; type: functional
# [26] = Inhibition of sorafenib-induced autophagic flux in human Huh-7 cells assessed as fold increase in LC3B-II protein expression at 20 uM incubated for 24 hrs in presence of 5 uM sorafenib by immunoblot analysis relative to control; type: functional
# Huh-7 [27] = test: Inhibition of autophagy in human Huh-7 cells assessed as fold increase in LC3B-II protein expression at 20 uM incubated for 24 hrs by immunoblot analysis relative to control; type: functional
# SK-HEP1 [28] = test: Inhibition of autophagy in human SK-HEP1 cells assessed as fold increase in p62 protein expression at 20 uM incubated for 24 hrs by immunoblot analysis relative to control; type: functional
# SK-HEP1 [29] = test: Inhibition of autophagy in human SK-HEP1 cells assessed as fold increase in p62 protein expression at 10 uM incubated for 24 hrs by immunoblot analysis relative to control; type: functional
# SK-HEP1 [30] = test: Inhibition of colony formation in human SK-HEP1 cells at 10 uM incubated for 14 days in presence of sorafenib by crystal violet staining based analysis; type: functional, cell-based; conditions: time 14.0 day
# Huh-7 [31] = test: Inhibition of autophagy in human Huh-7 cells overexpressing TurboRFP-EGFP-LC3B assessed as increase in yellow dot puncta formation at 10 uM incubated for 24 hrs by immunofluorescence assay; type: functional, cell-based
# SK-HEP1 [32] = test: Inhibition of autophagy in human SK-HEP1 cells assessed as reduction in LC3B-I protein expression at 10 to 20 uM incubated for 24 hrs by immunoblot analysis; type: functional, cell-based; conditions: dose 10-20 µM
smiles,measurement,setting,value
S=C(Nc1ccc2nc(-c3ccco3)c(-c3ccco3)nc2c1)N1CCCCCC1,inhibition,Huh-7 [1],Active
same,inhibition,Huh-7 [2],Active
same,Activity,MRC5,Non-Toxic
same,inhibition,[3],Dose-Dependent Effect
same,fold change (FC),[4],0.84
same,Activity,IMR-90,Non-Toxic
same,Activity,Huh-7 [5],Active
same,fold change (FC),Huh-7 [6],1.5
same,IC50,Cysteine protease ATG4B [7],3.08 µM
same,inhibition,[8],Dose-Dependent Effect
same,inhibition,Huh-7 [9],Active
same,inhibition,Huh-7 [10],Active
same,fold change (FC),[11],0.82
same,fold change (FC),[12],1.1
same,Kd,Cysteine protease ATG4B [13],14.3 µM
same,IC50,SK-HEP1 [14],23.6 µM
same,Activity,[15],Active
same,fold change (FC),[16],0.82
same,fold change (FC),SK-HEP1 [17],1.46
same,IC50,Huh-7 [18],25.3 µM
same,fold change (FC),[19],0.66
same,fold change (FC),[20],0.85
same,fold change (FC),Huh-7 [21],2.3
same,Activity,SK-HEP1 [22],Active
same,fold change (FC),[23],0.64
same,fold change (FC),SK-HEP1 [24],1.6
same,fold change (FC),Huh-7 [25],2.8
same,fold change (FC),[26],0.76
same,fold change (FC),Huh-7 [27],1.6
same,fold change (FC),SK-HEP1 [28],2.4
same,fold change (FC),SK-HEP1 [29],2.1
same,inhibition,SK-HEP1 [30],Active
same,inhibition,Huh-7 [31],Active
same,inhibition,SK-HEP1 [32],Active
